The values below come from paper doi:10.1101/2024.01.05.573888v1 (biorxiv, 2024).

Where two headings read alike, the source gives them in different places.

What all share (experiment): ITC
Holding throughout (type): binding

Test [1] has as its target T1, PaKPR2 (Pseudomonas aeruginosa, UniProt A0A0H2Z9K5).
T1 sequence (A0A0H2Z9K5 1-315): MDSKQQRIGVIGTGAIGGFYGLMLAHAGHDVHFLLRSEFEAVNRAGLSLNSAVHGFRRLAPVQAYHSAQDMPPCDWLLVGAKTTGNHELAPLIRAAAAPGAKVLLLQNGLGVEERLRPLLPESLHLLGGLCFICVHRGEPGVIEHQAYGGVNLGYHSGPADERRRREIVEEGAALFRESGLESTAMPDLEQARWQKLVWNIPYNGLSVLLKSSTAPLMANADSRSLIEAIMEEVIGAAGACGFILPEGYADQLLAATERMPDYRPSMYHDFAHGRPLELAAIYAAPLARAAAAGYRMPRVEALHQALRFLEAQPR

The target in test [2] is T1, PaKPR2. The source holds these as a separate data set.
In test [3] the target is T1, PaKPR2. This is another data set of the same source.

For the molecule `O=C(O)C(=O)c1ccco1` [2-Furyl glyoxylate], in test [1], the Kd (usually the concentration at which binding is half-saturated) was determined as 0.392 µM.

`CC(C)CC(=O)C(=O)O` [2-ketoisocaproate] yielded a Kd in test [2] of 3.05 µM.

For the molecule `CC[C@H](C)C(=O)C(=O)O` [3methyl 2 ketopentanoate], the Kd in test [3] worked out at 11.2 µM.

Turning to `O=C(O)C(=O)c1cccs1`, in test [1], the Kd worked out at 1.34 µM.

As for `NC(=O)C1=CN([C@@H]2O[C@H](COP(=O)(O)OP(=O)(O)OC[C@H]3O[C@@H](n4cnc5c(N)ncnc54)[C@H](OP(=O)(O)O)[C@@H]3O)[C@@H](O)[C@H]2O)C=CC1` [NADPH], binding in test [3] was characterised by a dissociation constant (Kd) of 7.68 µM.

Consider `NC(=O)C1=CN([C@@H]2O[C@H](COP(=O)(O)OP(=O)(O)OC[C@H]3O[C@@H](n4cnc5c(N)ncnc54)[C@H](O)[C@@H]3O)[C@@H](O)[C@H]2O)C=CC1` [NADH], for which binding in test [1] was characterised by a dissociation constant (Kd) of 98 µM.

As for `O=C(O)C(=O)CCc1ccccc1` [2-oxo-4-phenylbutanoic acid], binding in test [1] was put at a Kd of 9.09 µM.

In turn, `O=C(O)C(=O)c1ccccc1` [Phenyl glyoxylate] showed a Kd in test [1] of 3.53 µM.
